The text below walks through data of patent US20240299429A1, “PREVENTIVE AND THERAPEUTIC AGENT FOR URINARY TRACT INFECTION CONTAINING 1-DEOXYMANNOSE” (SUNUS CO., LTD., priority 2022, published 2024).

Read-outs that look alike come from different tables or passages of the source.

One data set has as its target Fim H lectin (Escherichia coli, UniProt P08191). As to conditions: read-out: dissociation constant (KD) against Fim H lectin (converted), cited from earlier work.
For data set [1], the system named is Escherichia coli (NBRC 3301). In words: Utilization of sugars by Escherichia coli (turbidity in M9 minimal medium). The format is cell-based. As to conditions: 1% sugar in M9 minimal medium, 37° C., compared with mannose and glucose. The protocol: In order to evaluate the utilization of 1-deoxymannose by Escherichia coli (NBRC 3301), the following experiment was conducted.
M9 minimal medium (obtained by adding MgSO4 and CaCl2 to Difco™ M9 Minimal Salt) containing 2 ml of 1% glucose was used. Escherichia coli (NBRC 3301) was subjected to shaking at 37° C. for 17 hours to prepare a culture solution. 10 μL of the culture solution was added to 2 ml of M9 minimal media containing 1%1-deoxymannose, 1% mannose, and 1% glucose, respectively, followed by shaking culture at 37° C. During culture, 100 μL of the culture solution was serially sampled and measured for its turbidity (600 nm) using a cell with an optical path length of 1 cm. The growth of Escherichia coli was evaluated based on increased turbidity. The results of the measurement are shown in FIG. 3, in which Example 2, Comparative Example 2, and Comparative Example 3 correspond to the culture solution containing 1-deoxymannose, the culture solution containing mannose, and the culture solution containing glucose, respectively.

Data set [2] in a line: Urine volume after oral administration. The format is in vivo. As to conditions: 1 g oral, human, all points in time up to eight hours. The protocol: (§1) 1 g of 1-deoxymannose was dissolved in water to prepare a 20% w/w solution as a sample for oral administration. Urine was collected from six human subjects before administration of the sample. The total amount of sample was administered orally to each of the subjects, and the total amount of urine was collected one, two, three, four, six and eight hours after the administration. The urine collected at each of the points in time was subjected to volume measurement, and then filtered through a membrane filter with a pore size of 0.2 μm, followed by measurement of urinary 1-deoxymannose concentration by HPLC analysis.
Mannose, instead of 1-deoxymannose, was orally administered, followed by collection of urine, in the same manner as in Example 1.
In FIG. 2, the vertical axis indicates the percentage of the urine volume after administration of 1-deoxymannose in Example 1 relative to the urine volume after administration of mannose in Comparative Example 1 taken as 100%, at the respective points in time.

Data set [3] is described as follows: Urinary recovery rate after oral administration. It counts as in vivo. As to conditions: urine; 1 g oral, human, up to eight hours after administration. The method, then:
as §1
The urinary recovery rate of 1-deoxymannose was determined by dividing the amount of recovered 1-deoxymannose, which was obtained from the collected urine volume and the urinary 1-deoxymannose concentration, by the dose. The urinary recovery rate is expressed by the following formula:
[formula] • Vn: Urine volume [ml] n hour (s) after administration • Cn: Urinary 1-deoxymannose concentration [mg/ml] n hour (s) after administration • M: Dose of 1-deoxymannose (=1000 mg)

The nature of data set [4]: Urinary concentration after oral administration to human subjects (HPLC). It counts as in vivo. As to conditions: 1 g oral. The method, then:
HPLC devices: PU2089 plus, AS2055 plus and RI2031 plus (series number) manufactured by JASCO Corporation; MODEL 556 manufactured by GL Sciences Inc. • Columns: MITSUBISHI MCI GEL CK08S; two columns coupled together • Oven temperature: 60° C. • Eluent: Water • Detector: Differential refractometer • Flow rate: 1 ml/minute • Injection volume: 100 μL
The determination of 1-deoxymannose was carried out using a calibration curve produced by using the 1-deoxymannose prepared as above. The determination of mannose was carried out using a calibration curve produced by using special grade mannose as a reagent.
as §1
Mannose, instead of 1-deoxymannose, was orally administered, followed by collection of urine, in the same manner as in Example 1. […]

Chain of Fim H lectin (P08191 22-300): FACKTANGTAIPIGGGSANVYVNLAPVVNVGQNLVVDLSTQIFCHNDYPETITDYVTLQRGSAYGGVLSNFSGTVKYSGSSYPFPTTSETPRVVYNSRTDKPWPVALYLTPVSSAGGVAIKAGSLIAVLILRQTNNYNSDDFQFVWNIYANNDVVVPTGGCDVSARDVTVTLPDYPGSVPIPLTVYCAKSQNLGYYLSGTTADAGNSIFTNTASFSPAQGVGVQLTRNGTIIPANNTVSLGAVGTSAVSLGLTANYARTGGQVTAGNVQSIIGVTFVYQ

For orientation: Kd means the equilibrium constant for the complex coming apart. In the case of `OC[C@H]1OC[C@@H](O)[C@@H](O)[C@@H]1O` [1-deoxymannose, 1,5-anhydro-D-mannitol], the Kd on Fim H lectin (expressed as mass concentration) and at Fim H lectin was 1130 nM each time. In data set [1], the “turbidity (600 nm) of Escherichia coli culture, growth” value is “did not have increased turbidity”. Besides, the “urine volume versus mannose administration group” value in data set [2] was “larger volume of urine”. In data set [3], this molecule yielded a dose excreted of 43.3 ± 9.03%. The same molecule showed a highest urinary concentration in data set [4] (average of six subjects, two hours after administration) of 2.12 mg/mL. In addition, the detection in urine entry in data set [4] (six subjects, urine collected one to eight hours after administration, detection limit 0.1 mg/ml) is “detected”.
